Data taken from patent US20140256639A1, “PEPTOID NEUTRALIZING AGENTS” (The Regents of the University of California, priority 2013, published 2014).

What was measured:
heparin activity = conditions: Rabenstein and Wang 2006; cited from earlier work
proteases = conditions: physiological conditions; cited from earlier work
[1] = Heparin affinity chromatography (HAC), NaCl gradient elution; assay type: binding; conditions: pH 7.2, 50 mM sodium phosphate, gradient 0 to 1 M NaCl over 60 min, 0.65 mL/min
Method: The relative affinities of the peptoids in Table 2 for heparin were determined by heparin affinity chromatography (“HAC”). Peptoid solutions, typically 0.2 mM, were eluted by gradient elution; mobile phase A consisted of pH 7.2, 50 mM sodium phosphate buffer and mobile phase B consisted of the same buffer but with 1 M NaCl added. The flow rate was 0.65 mL/min and the gradient began with 100% mobile phase A and 0% mobile phase B, and ended at 60 min with 0% mobile phase A and 100% B although most of the peptoid runs were complete within 30 min or less.

Substance	stability / degradation by proteases (proteases)	also measured
Ac-SRGKAKVKAKVKDQTK-NH2 (not fully specified; printed as Ac-SRGKAKVKAKVKDQTK-NH2) [L-HIPAP]		neutralizing heparin activity (heparin activity): equally effective
Ac-SRGKAKVKAKVKDQTK-NH2 [D-HIPAP]	more stable than L-HIPAP	
Ac-SRGKAKVKAKVKDQTK-NH2 [L-HIPAP]	more susceptible to degradation by proteases	
H-[N(Orn)-N(All)-N(Spe)]3-NH2 [s9merAll]		HAC r.t. [1]: 20 ± 2.0 min
